The supplement of paper PMC5844555

Assays:
Assay in all cases: 3' UTR reporter interaction score (median-centred robust z-score of log2 firefly/Renilla activity); higher = less repression of the 3' UTR reporter
Settings in all cases: HEK293T; 48 h
EZH2 = test system: EZH2
Procedure, shortened: (§1)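 Using DharmaFECT Duo, HEK293T cells (10,000/well, 96-well plates) were co-transfected with 2.5 pmol miRNA mimic, 100 ng firefly luc2P reporter containing the gene's 3' UTR and 20 ng Renilla pRL-TK control, and dual-luciferase activity was read 48 h later. The interaction score is the log firefly/Renilla ratio as a per-plate robust z-score (median, median absolute deviation), median-centred per miRNA, averaged over at least two independent screens; lower, more negative values indicate interaction.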

PHF6 = test system: PHF6
Procedure, shortened: as §1

MYT1L = test system: MYT1L
Procedure, shortened: as §1

HRAS = test system: HRAS
Procedure, shortened: as §1

ZEB2 = test system: ZEB2
Procedure, shortened: as §1

MYCN = test system: MYCN
Procedure, shortened: as §1

RB1 = test system: RB1
Procedure, shortened: as §1

TP53 = test system: TP53
Procedure, shortened: as §1

NOTCH1 = test system: NOTCH1
Procedure, shortened: as §1

FBXW7 = test system: FBXW7
Procedure, shortened: as §1

PHOX2B = test system: PHOX2B
Procedure, shortened: as §1

BRCA2 = test system: BRCA2
Procedure, shortened: as §1

MYC = test system: MYC
Procedure, shortened: as §1

MYB = test system: MYB
Procedure, shortened: as §1

Row | Sequence | 3' UTR reporter interaction score (EZH2) | 3' UTR reporter interaction score (PHF6) | 3' UTR reporter interaction score (MYT1L) | 3' UTR reporter interaction score (HRAS) | 3' UTR reporter interaction score (ZEB2) | 3' UTR reporter interaction score (MYCN) | 3' UTR reporter interaction score (RB1) | 3' UTR reporter interaction score (TP53) | 3' UTR reporter interaction score (NOTCH1) | 3' UTR reporter interaction score (FBXW7) | 3' UTR reporter interaction score (PHOX2B) | 3' UTR reporter interaction score (BRCA2) | 3' UTR reporter interaction score (MYC) | 3' UTR reporter interaction score (MYB)
1 | UGGAAUGUAAAGAAGUAUGUA | -0.314 | 0.925 | -0.17 | 1.1 | 0.551 | -0.505 | 0.684 | -1.46 | -0.912 | -2.71 | 0.106 | 0.327 | 0.479 | 0.679
2 | UGGAAUGUAAGGAAGUGUGUGG | 0.341 | 2.43 | 0.351 | 0.0317 | 2.54 | -2.18 | 1.33 | -1.12 | -0.967 | -0.356 | 0.446 | -0.366 | 0.26 | -0.696
3 | UGGACGGAGAACUGAUAAGGGU | -0.0404 | 0.399 | 0.408 | -0.151 | 0.823 | -0.133 | -0.376 | 0.461 | -0.401 | 0.0713 | -1.18 | 0.362 | -0.199 | 0.576
4 | UGGAGAGAAAGGCAGUUC | -0.838 | -0.104 | 0.463 | -0.0201 | 1.17 | 0.412 | -0.051 | -1.31 | -0.015 | -1.52 | -0.292 | -0.859 | 0.053 | 0.823
5 | UGGAGGAGAAGGAAGGUGAUG | -2.61 | -0.248 | 2.74 | -0.351 | 3.77 | 0.481 | 1.82 | -0.557 | -0.968 | -0.125 | 2.06 | -2.61 | -2.42 | 1.88
6 | UGGCAGUGUAUUGUUAGCUGGU | -0.805 | -3.24 | -0.141 | 1.02 | 0.089 | -4.71 | -0.641 | 0.314 | -4.47 | 0.551 | -0.186 | 0.888 | -2.6 | -4.53
7 | UGGCAGUGUCUUAGCUGGUUGUU | 0.955 | -0.889 | 1.45 | 1.33 | 0.283 | -3.64 | -0.641 | 1.68 | -3.59 | -0.0417 | -0.535 | 0.486 | -0.668 | -2.9
8 | UGGCUCAGUUCAGCAGGAACAG | -0.274 | -0.0264 | 0.53 | -1.16 | 0.984 | 0.921 | 0.0253 | 0.345 | -1.7 | -0.156 | 0.0378 | 1.1 | -2.14 | 0.0413
9 | UGGGCGUAUCUGUAUGCUA | -1.3 | 1.09 | 0.105 | -0.235 | 2.53 | 0.906 | -0.659 | -0.0916 | -2.02 | 0.752 | 2.15 | -0.638 | -0.549 | 0.397
10 | UGGUAGACUAUGGAACGUA | -0.991 | -0.619 | 0.0286 | -0.461 | 0.356 | 0.966 | 1.85 | -0.283 | 0.639 | 0.552 | -0.373 | -0.722 | -0.304 | 0.96
